Measurements from US20080275085A1, “Piperidine derivative and use thereof” (priority 2007, published 2008).
Counter-ions that a name gives are not always drawn.

Molecular target: T1, substance P receptor (Homo sapiens, UniProt P25103)
T1 construct: The receptor was prepared from human lymphoblast cells (IM-9); endogenous in cells; host or cells: IM-9 human lymphoblast cells (membrane fraction, 100,000xG precipitate)
Experiment: Radioligand receptor binding inhibitory activity (125I-BHSP binding, receptor from IM-9 cells)
Details: receptor from human lymphoblast cells (IM-9); radioligand 125I-BHSP; 25° C., 30 min
Procedure: Radioligand Receptor Binding Inhibitory Activity (Binding Inhibitory Activity Using Receptor from Human Lymphoblast Cells (IM-9))
The method of M. A. Cascieri et al., “Molecular Pharmacology, vol. 42, p. 458 (1992)” was modified and used. The receptor was prepared from human lymphoblast cells (IM-9).
IM-9 cells (2×10^5 cells/mL) were inoculated and incubated for 3 days, which was then subjected to centrifugation for 10 min. at 500×G to give cell pellets. The obtained pellets were washed with PBS (GIBCO), disrupted in buffer A (50 mM tris.hydrochloric acid buffer (pH 7.4) containing 120 mM sodium chloride, 5 mM potassium chloride, 2 μg/mL chymostatin, 40 μg/mL bacitracin, 40 μg/mL APMSF, 1 mM ethylenediamine tetra acetic acid) using a polytron.homogenizer [manufactured by Kinematika, Germany], and centrifuged at 100,000×G for 40 min. The precipitated fraction was suspended in buffer B (50 mM Tris-HCl (pH 7.4), 0.02% bovine serum albumin, 2 μg/mL chymostatin, 40 μg/mL bacitracin, 40 μg/mL APMSF, 3 mM MgCl2), which was then cryopreserved (−80° C.) as a receptor specimen.
Buffer B (50 μL) was added to a 96 well microassay plate (CORNING). Thereto was added 50 μL of membrane preparation suspended in buffer B at 250 μg/mL. A measurement buffer (50 μL) containing 2% dimethyl sulfoxide was added to examine total binding; 4 μM unlabeled SP (50 μL) diluted with a measurement buffer containing 2% dimethyl sulfoxide was added to examine non-specific binding; and 50 μL of a test compound (containing 2% dimethyl sulfoxide) diluted with a measurement buffer was added to examine binding inhibitory activity of the test compound. In addition, […] ^125I-BHSP solution (50 μL) was added to each well.
After reaction at 25° C. for 30 min, the cells were rapidly filtered through a GF/C filter plate (PerkinElmer) using a cell harvester (manufactured by PerkinElmer) to quench the reaction, and washed 10 times with 250 μL of 50 mM tris-HCl buffer (pH 7.4) containing 0.02% bovine serum albumin. The GF/C filter plate was dried, MicroScinti 0 (20 μL) was added, and the radioactivity was measured with TopCount (manufactured by PerkinElmer). The GF/C filter plate was immersed in 0.3% polyethylene imine for one day before use.
Specific binding is a value obtained by subtracting nonspecific binding from total binding. The binding inhibitory activity of a test compound is shown by a ratio of a value obtained by subtracting a measurement value with addition of a test compound from the total binding, relative to specific binding.
The antagonistic activity of the compounds obtained in the Examples was determined as a concentration necessary for causing 50% inhibition (IC50 value) under the above-described conditions, and the results shown in Table 34 were obtained.
The radio ligand means substance P labeled with [^125I].

T1 sequence (P25103 whole entry): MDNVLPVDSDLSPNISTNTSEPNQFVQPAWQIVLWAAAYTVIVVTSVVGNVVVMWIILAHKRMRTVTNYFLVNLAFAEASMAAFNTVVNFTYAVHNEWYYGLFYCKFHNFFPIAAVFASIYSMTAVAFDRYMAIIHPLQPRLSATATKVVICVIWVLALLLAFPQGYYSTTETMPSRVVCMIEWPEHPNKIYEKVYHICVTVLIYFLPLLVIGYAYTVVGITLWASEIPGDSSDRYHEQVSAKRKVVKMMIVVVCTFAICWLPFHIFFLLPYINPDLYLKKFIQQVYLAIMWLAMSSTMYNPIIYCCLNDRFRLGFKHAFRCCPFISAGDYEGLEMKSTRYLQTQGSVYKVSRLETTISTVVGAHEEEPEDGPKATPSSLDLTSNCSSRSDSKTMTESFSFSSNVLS

Compound | IC50 [nM]
Cc1ccccc1[C@H]1CN(C(=O)C2CCN(C(=O)CO)CC2)CC[C@@H]1C(=O)N(C)Cc1cc(C(F)(F)F)cc(C(F)(F)F)c1 [Example 18, (3S,4S)—N-[3,5-bis(trifluoromethyl)benzyl]-1-[[1-glycoloylpiperidin-4-yl]carbonyl]-N-methyl-3-(2-methylphenyl)piperidine-4-carboxamide] | 0.024
Cc1ccccc1[C@H]1CN(C(=O)C2CCN(C(=O)[C@H](C)O)CC2)CC[C@@H]1C(=O)N(C)Cc1cc(C(F)(F)F)cc(C(F)(F)F)c1 [Example 28, (3S,4S)—N-(3,5-bis(trifluoromethyl)benzyl]-1-({1-[(2S)-2-hydroxypropanoyl]piperidin-4-yl}carbonyl)-N-methyl-3-(2-methylphenyl)piperidine-4-carboxamide] | 0.022
Cc1cc(F)ccc1[C@H]1CN(C(=O)CN2C(=O)OC(C)(C)C2=O)CC[C@@H]1C(=O)N(C)Cc1cc(C(F)(F)F)cc(C(F)(F)F)c1 [Example 148, (3S,4S)—N-[3,5-bis(trifluoromethyl)benzyl]-1-[(5,5-dimethyl-2,4-dioxo-1,3-oxazolidin-3-yl)acetyl]-3-(4-fluoro-2-methylphenyl)-N-methylpiperidine-4-carboxamide] | 0.06
Cc1cc(F)ccc1[C@H]1CN(C(=O)C2CCN(C(=O)[C@@H](C)O)CC2)CC[C@@H]1C(=O)N(C)Cc1cc(C(F)(F)F)cc(C(F)(F)F)c1 [Example 151, (3S,4S)—N-[3,5-bis(trifluoromethyl)benzyl]-3-(4-fluoro-2-methylphenyl)-1-({1-[(2R)-2-hydroxypropanoyl]piperidin-4-yl}carbonyl)-N-methylpiperidine-4-carboxamide] | 0.02

Next, values leading:

IC50 [nM] | Compound
0.038 | Cc1cc(F)ccc1[C@@H]1CN(CC(N)=O)CC[C@H]1C(=O)N(C)Cc1cc(C(F)(F)F)cc(C(F)(F)F)c1 (relative stereo) [Example 112, (3R*,4R*)-1-(2-amino-2-oxoethyl)-N-[3,5-bis(trifluoromethyl)benzyl]-3-(4-fluoro-2-methylphenyl)-N-methylpiperidine-4-carboxamide monohydrochloride]
0.033 | Cc1cc(F)ccc1[C@H]1CN(C(=O)c2cncnc2)CC[C@@H]1C(=O)N(C)[C@@H](C)c1cc(C(F)(F)F)cc(C(F)(F)F)c1 [Example 158, (3S,4S)—N-{(1S)-1-[3,5-bis(trifluoromethyl)phenyl]ethyl}-3-(4-fluoro-2-methylphenyl)-N-methyl-1-(pyrimidin-5-ylcarbonyl)piperidine-4-carboxamide]
0.023 | Cc1cc(F)ccc1[C@H]1CN(CCS(C)(=O)=O)CC[C@@H]1C(=O)N(C)[C@@H](C)c1cc(C(F)(F)F)cc(C(F)(F)F)c1 [Example 180, (3S,4S)—N-{(1S)-1-[3,5-bis(trifluoromethyl)phenyl]ethyl}-3-(4-fluoro-2-methylphenyl)-N-methyl-1-[2-(methylsulfonyl)ethyl]piperidine-4-carboxamide monohydrochloride]
0.049 | Cc1cc(F)ccc1[C@H]1CN(S(C)(=O)=O)CC[C@@H]1C(=O)N(C)[C@@H](C)c1cc(C(F)(F)F)cc(C(F)(F)F)c1 [Example 179, (3S,4S)—N-{(1S)-1-[3,5-bis(trifluoromethyl)phenyl]ethyl}-3-(4-fluoro-2-methylphenyl)-N-methyl-1-(methylsulfonyl)piperidine-4-carboxamide]

Test system: not given
Experiment: not given
Details: not given

Compound | melting point [°C]
CC(=O)Nc1ccc(N2CC[C@@H](C(=O)N(C)Cc3cc(C(F)(F)F)cc(C(F)(F)F)c3)[C@H](c3ccc(F)cc3C)C2)nc1 (relative stereo) (as salt: hydrochloride) (hydrate or solvate) [Example 129, (3R*,4R*)-1-[5-(acetylamino)pyridin-2-yl]-N-[3,5-bis(trifluoromethyl)benzyl]-3-(4-fluoro-2-methylphenyl)-N-methylpiperidine-4-carboxamide monohydrochloride] | 213 to 215
Cc1cc(F)ccc1[C@@H]1CN(CC(=O)N2CCC(O)CC2)CC[C@H]1C(=O)N(C)Cc1cc(C(F)(F)F)cc(C(F)(F)F)c1 (relative stereo) (as salt: hydrochloride) [Example 104, (3R*,4R*)—N-[3,5-bis(trifluoromethyl)benzyl]-3-(4-fluoro-2-methylphenyl)-1-[2-(4-hydroxypiperidin-1-yl)-2-oxoethyl]-N-methylpiperidine-4-carboxamide monohydrochloride] | 220 to 224
Cc1ccccc1[C@@H]1CN(C(=O)C2CCN(C(=O)CO)CC2)CC[C@H]1C(=O)N(C)Cc1cc(C(F)(F)F)cc(C(F)(F)F)c1 (relative stereo) [Example 16, (3R*,4R*)—N-[3,5-bis(trifluoromethyl)benzyl]-1-[(1-glycoloylpiperidin-4-yl)carbonyl]-N-methyl-3-(2-methylphenyl)piperidine-4-carboxamide] | 173 to 174
Cc1cc(F)ccc1[C@@H]1CN(C2CCN(C(=O)C(N)=O)CC2)CC[C@H]1C(=O)N(C)Cc1cc(C(F)(F)F)cc(C(F)(F)F)c1 (relative stereo) (as salt: hydrochloride) (hydrate or solvate) [Example 108, (3R*,4R*)-1′-[amino(oxo)acetyl]-N-[3,5-bis(trifluoromethyl)benzyl]-3-(4-fluoro-2-methylphenyl)-N-methyl-1,4′-bipiperidine-4-carboxamide monohydrochloride] | 175 to 176

Next, values leading:

melting point [°C] | Compound
209 to 211 | Cc1cc(F)ccc1[C@@H]1CN(C(C)(C)C(N)=O)CC[C@H]1C(=O)N(C)Cc1cc(C(F)(F)F)cc(C(F)(F)F)c1 (relative stereo) (as salt: hydrochloride) [Example 113, (3R*,4R*)-1-(2-amino-1,1-dimethyl-2-oxoethyl)-N-[3,5-bis(trifluoromethyl)benzyl]-3-(4-fluoro-2-methylphenyl)-N-methylpiperidine-4-carboxamide monohydrochloride]
234 to 236 | Cc1cc(F)ccc1[C@@H]1CN(C(C)CO)CC[C@H]1C(=O)N(C)Cc1cc(C(F)(F)F)cc(C(F)(F)F)c1 (relative stereo) (as salt: hydrochloride) [Example 120, (3R*,4R*)—N-[3,5-bis(trifluoromethyl)benzyl]-3-(4-fluoro-2-methylphenyl)-1-(2-hydroxy-1-methylethyl)-N-methylpiperidine-4-carboxamide monohydrochloride]
133 to 139 | Cc1cc(F)ccc1[C@H]1CN(CC(N)=O)CC[C@@H]1C(=O)N(C)[C@H](C)c1cc(C(F)(F)F)cc(C(F)(F)F)c1.Cl (hydrate or solvate)
185 to 188 | Cc1cc(F)ccc1[C@H]1CN(C(=O)c2cncnc2)CC[C@@H]1C(=O)N(C)[C@@H](C)c1cc(C(F)(F)F)cc(C(F)(F)F)c1 (hydrate or solvate) [Example 158, (3S,4S)—N-{(1S)-1-[3,5-bis(trifluoromethyl)phenyl]ethyl}-3-(4-fluoro-2-methylphenyl)-N-methyl-1-(pyrimidin-5-ylcarbonyl)piperidine-4-carboxamide]
210 to 214 | Cc1cc(F)ccc1[C@@H]1CN(CC(=O)NC2CC2)CC[C@H]1C(=O)N(C)Cc1cc(C(F)(F)F)cc(C(F)(F)F)c1 (relative stereo) (as salt: hydrochloride) [Example 103, (3R*,4R*)—N-[3,5-bis(trifluoromethyl)benzyl]-1-[2-(cyclopropylamino)-2-oxoethyl]-3-(4-fluoro-2-methylphenyl)-N-methylpiperidine-4-carboxamide monohydrochloride]
175 to 177 | Cc1cc(F)ccc1[C@@H]1CN(CC(N)=O)CC[C@H]1C(=O)N(C)Cc1cc(C(F)(F)F)cc(C(F)(F)F)c1 (relative stereo) (as salt: hydrochloride) (hydrate or solvate) [Example 112, (3R*,4R*)-1-(2-amino-2-oxoethyl)-N-[3,5-bis(trifluoromethyl)benzyl]-3-(4-fluoro-2-methylphenyl)-N-methylpiperidine-4-carboxamide monohydrochloride]
